Assay results as given in the NIST ThermoML archive (doi:10.1016/j.jct.2012.09.032).
± gives the expanded uncertainty stated by the source.

Conditions: Liquid, Ebulliometric method (Recirculating still)

## CCO [ethanol]
295.25 K
  vapor or sublimation pressure: 6.7 ± 0.1 kPa
307.45 K
  vapor or sublimation pressure: 13.3 ± 0.27 kPa
315.05 K
  vapor or sublimation pressure: 20 ± 0.41 kPa
321.05 K
  vapor or sublimation pressure: 26.7 ± 0.57 kPa
325.65 K
  vapor or sublimation pressure: 33.3 ± 0.7 kPa
329.55 K
  vapor or sublimation pressure: 40 ± 0.86 kPa
332.85 K
  vapor or sublimation pressure: 46.7 ± 1 kPa
335.95 K
  vapor or sublimation pressure: 53.3 ± 1.2 kPa
338.65 K
  vapor or sublimation pressure: 60 ± 1.4 kPa
341.15 K
  vapor or sublimation pressure: 66.7 ± 1.6 kPa

## OCC(O)CO [glycerol]
477.25 K
  vapor or sublimation pressure: 6.7 ± 0.12 kPa
493.35 K
  vapor or sublimation pressure: 13.3 ± 0.37 kPa
505.55 K
  vapor or sublimation pressure: 20 ± 0.58 kPa
513.95 K
  vapor or sublimation pressure: 26.7 ± 0.76 kPa
520.65 K
  vapor or sublimation pressure: 33.3 ± 0.87 kPa

## CO [methanol]
282.55 K
  vapor or sublimation pressure: 6.7 ± 0.1 kPa
293.75 K
  vapor or sublimation pressure: 13.3 ± 0.27 kPa
301.45 K
  vapor or sublimation pressure: 20 ± 0.41 kPa
307.35 K
  vapor or sublimation pressure: 26.7 ± 0.56 kPa
311.85 K
  vapor or sublimation pressure: 33.3 ± 0.7 kPa
315.75 K
  vapor or sublimation pressure: 40 ± 0.86 kPa
319.05 K
  vapor or sublimation pressure: 46.7 ± 1 kPa
322.05 K
  vapor or sublimation pressure: 53.3 ± 1.2 kPa
324.65 K
  vapor or sublimation pressure: 60 ± 1.4 kPa
327.25 K
  vapor or sublimation pressure: 66.7 ± 1.6 kPa

## O [water]
311.15 K
  vapor or sublimation pressure: 6.7 ± 0.11 kPa
324.55 K
  vapor or sublimation pressure: 13.3 ± 0.35 kPa
361.85 K
  vapor or sublimation pressure: 66.7 ± 2.8 kPa
